Several values for one entry are separate records, joined by “and”; a condition that tells them apart may be missing. Identical values can stand only once. Toxic doses and inconclusive results are not listed.
Test system: B6C3F1 mice, B16 melanoma ip, median survival T/C
Test: NCI In Vivo Anticancer Drug Screen. Data for tumor model B16 Melanoma (intraperitoneal) in B6C3F1 mice
Details: endpoint: median survival time, higher = longer survival
How it was run: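 Readout: survival or tumor size in treated mice relative to vehicle controls (T/C). Model uses transplantable tumors grown in mice.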

[1] = dose: 0.25 mg/kg/injection, schedule: Q01DX009 (ip), vehicle: Klucel (hydroxypropylcellulose) (HPC)
[2] = dose: 0.5 mg/kg/injection, schedule: Q01DX009 (ip), vehicle: Klucel (hydroxypropylcellulose) (HPC)
[3] = dose: 50.0 mg/kg/injection, schedule: Q01DX009 (ip), vehicle: saline
[4] = dose: 100.0 mg/kg/injection, schedule: Q01DX009 (ip), vehicle: saline
[5] = dose: 12.5 mg/kg/injection, schedule: Q01DX009 (ip), vehicle: saline with Tween-80
[6] = dose: 25.0 mg/kg/injection, schedule: Q01DX009 (ip), vehicle: saline with Tween-80
[7] = dose: 50.0 mg/kg/injection, schedule: Q01DX009 (ip), vehicle: saline with Tween-80
[8] = dose: 100.0 mg/kg/injection, schedule: Q01DX009 (ip), vehicle: saline with Tween-80
[9] = dose: 3.12 mg/kg/injection, schedule: Q01DX009 (ip), vehicle: saline
[10] = dose: 6.25 mg/kg/injection, schedule: Q01DX009 (ip), vehicle: saline
[11] = dose: 25.0 mg/kg/injection, schedule: Q01DX009 (ip), vehicle: saline
[12] = dose: 12.5 mg/kg/injection, schedule: Q01DX009 (ip), vehicle: saline
[13] = dose: 25.0 mg/kg/injection, schedule: Q01DX009 (ip), vehicle: Klucel (hydroxypropylcellulose) (HPC)
[14] = dose: 50.0 mg/kg/injection, schedule: Q01DX009 (ip), vehicle: Klucel (hydroxypropylcellulose) (HPC)
[15] = dose: 200.0 mg/kg/injection, schedule: Q01DX009 (ip), vehicle: saline with Tween-80
[16] = dose: 400.0 mg/kg/injection, schedule: Q01DX009 (ip), vehicle: saline with Tween-80

C=C(OP(=O)(OC)OC)Sc1ccccc1C
T/C (dose: 0.06 mg/kg/injection, schedule: Q01DX009 (ip), vehicle: Klucel (hydroxypropylcellulose) (HPC)): 94 % of control | T/C (dose: 0.12 mg/kg/injection, schedule: Q01DX009 (ip), vehicle: Klucel (hydroxypropylcellulose) (HPC)): 102 % of control | T/C [1]: 104 % of control | T/C (dose: 0.38 mg/kg/injection, schedule: Q01DX009 (ip), vehicle: Klucel (hydroxypropylcellulose) (HPC)): 121 % of control | T/C [2]: 100 % of control | T/C (dose: 0.75 mg/kg/injection, schedule: Q01DX009 (ip), vehicle: Klucel (hydroxypropylcellulose) (HPC)): 107 % of control

NC1=NCN(C2OC(CO)C(O)C2O)C(=O)N1 (stereo not drawn)
T/C [3]: 108 % of control | T/C [4]: 105 % of control

O=[n+]1c2ccccc2n([O-])c2cc(Cl)ccc21
T/C [5]: 111 % of control | T/C [6]: 109 % of control | T/C [7]: 116 % of control | T/C [8]: 124 % of control

COc1cc(Cl)ccc1C
T/C (dose: 9.37 mg/kg/injection, schedule: Q01DX009 (ip), vehicle: Klucel (hydroxypropylcellulose) (HPC)): 100 % of control | T/C (dose: 18.75 mg/kg/injection, schedule: Q01DX001 (ip), vehicle: Klucel (hydroxypropylcellulose) (HPC)): 109 % of control | T/C (dose: 18.75 mg/kg/injection, schedule: Q01DX009 (ip), vehicle: Klucel (hydroxypropylcellulose) (HPC)): 100 % of control | T/C (dose: 37.5 mg/kg/injection, schedule: Q01DX001 (ip), vehicle: Klucel (hydroxypropylcellulose) (HPC)): 107 % of control | T/C (dose: 37.5 mg/kg/injection, schedule: Q01DX009 (ip), vehicle: Klucel (hydroxypropylcellulose) (HPC)): 98 % of control | T/C (dose: 75.0 mg/kg/injection, schedule: Q01DX001 (ip), vehicle: Klucel (hydroxypropylcellulose) (HPC)): 115 % of control | T/C (dose: 75.0 mg/kg/injection, schedule: Q01DX009 (ip), vehicle: Klucel (hydroxypropylcellulose) (HPC)): 101 % of control | T/C (dose: 150.0 mg/kg/injection, schedule: Q01DX001 (ip), vehicle: Klucel (hydroxypropylcellulose) (HPC)): 110 % of control | T/C (dose: 150.0 mg/kg/injection, schedule: Q01DX009 (ip), vehicle: Klucel (hydroxypropylcellulose) (HPC)): 100 % of control | T/C (dose: 300.0 mg/kg/injection, schedule: Q01DX001 (ip), vehicle: Klucel (hydroxypropylcellulose) (HPC)): 111 % of control | T/C (dose: 300.0 mg/kg/injection, schedule: Q01DX009 (ip), vehicle: Klucel (hydroxypropylcellulose) (HPC)): 95 % of control

O=[Te]=O
T/C [9]: 110 % of control | T/C [10]: 109 % of control

CC(=O)CC(=O)CCC(=O)O
T/C [11]: 97 % of control | T/C [3]: 97 % of control | T/C [4]: 93 % of control

C=C1[C@@H](O)[C@]2(O)OC[C@@]34[C@H]1[C@@H](OC(=O)C(C)CC)C(=O)O[C@@H]3C[C@H]1C(C)=CC(=O)[C@@H](O)[C@]1(C)[C@@H]24 (stereo partly drawn)
T/C (dose: 1.0 mg/kg/injection, schedule: Q01DX009 (ip), vehicle: saline with Tween-80): 175 % of control | T/C (dose: 2.0 mg/kg/injection, schedule: Q01DX009 (ip), vehicle: saline with Tween-80): 165 % of control | T/C (dose: 4.0 mg/kg/injection, schedule: Q01DX009 (ip), vehicle: saline with Tween-80): 175 % of control | T/C (dose: 8.0 mg/kg/injection, schedule: Q01DX009 (ip), vehicle: saline with Tween-80): 165 % of control | T/C (dose: 16.0 mg/kg/injection, schedule: Q01DX009 (ip), vehicle: saline with Tween-80): 180 % of control

CCCCNC(C)(C)COC(=O)/C=C/c1ccc(OCCCC)cc1
T/C [5]: 98 % of control | T/C [6]: 93 % of control | T/C [7]: 90 % of control

CC(NC(=O)c1ccccc1)C(=O)O (stereo not drawn)
T/C (dose: 40.0 mg/kg/injection, schedule: Q01DX009 (ip), vehicle: saline with Tween-80): 97 % of control | T/C (dose: 80.0 mg/kg/injection, schedule: Q01DX009 (ip), vehicle: saline with Tween-80): 90 % of control

O=c1[nH]c(=O)c2nc(-c3cccnc3)cnc2[nH]1
T/C [12]: 92 % of control | T/C [11]: 98 % of control | T/C [3]: 95 % of control | T/C [4]: 92 % of control

CC(=O)OC1C2CCC3C(C)(O)C4CC(O)C(C)(C)C4(O)C(O)CC13CC2(C)O (stereo not drawn)
T/C [1]: 111 % of control | T/C [2]: 100 % of control | T/C (dose: 1.0 mg/kg/injection, schedule: Q01DX009 (ip), vehicle: Klucel (hydroxypropylcellulose) (HPC)): 121 % of control

Cc1cc(NCCCCCCNc2cc(C)nc3cc(N(C)C)ccc23)c2ccc(N(C)C)cc2n1
T/C (dose: 3.13 mg/kg/injection, schedule: Q01DX009 (ip), vehicle: distilled water + Tween-80 + alcohol): 100 % of control | T/C (dose: 6.25 mg/kg/injection, schedule: Q01DX009 (ip), vehicle: distilled water + Tween-80 + alcohol): 112 % of control | T/C (dose: 12.5 mg/kg/injection, schedule: Q01DX009 (ip), vehicle: distilled water + Tween-80 + alcohol): 112 % of control and 122 % of control

O=C(O)CSc1c(Cl)c(=O)oc2ccc(Cl)cc12
T/C (dose: 6.25 mg/kg/injection, schedule: Q01DX009 (ip), vehicle: Klucel (hydroxypropylcellulose) (HPC)): 97 % of control | T/C (dose: 12.5 mg/kg/injection, schedule: Q01DX009 (ip), vehicle: Klucel (hydroxypropylcellulose) (HPC)): 95 % of control | T/C [13]: 101 % of control | T/C [14]: 107 % of control | T/C (dose: 100.0 mg/kg/injection, schedule: Q01DX009 (ip), vehicle: Klucel (hydroxypropylcellulose) (HPC)): 116 % of control

COC1/C=C/C=C(/C)Cc2cc(O)c(Cl)c(c2)N(C)C(=O)CC(OC(=O)C(C)C)C2(C)OC2C(C)C2CC1(O)NC(=O)O2 (stereo not drawn)
T/C (dose: 0.25 mg/kg/injection, schedule: Q01DX009 (ip), vehicle: saline + alcohol): 155 % of control | T/C (dose: 0.5 mg/kg/injection, schedule: Q01DX009 (ip), vehicle: saline + alcohol): 150 % of control | T/C (dose: 25.0 micrograms/kg/injection, schedule: Q01DX009 (ip), vehicle: saline + alcohol): 120 % of control | T/C (dose: 400.0 micrograms/kg/injection, schedule: Q01DX009 (ip), vehicle: saline + alcohol): 151 % of control

Cc1cc(Nc2ccc3c(c2)OCO3)c2cc3c(cc2n1)OCO3
T/C [13]: 105 % of control | T/C [14]: 101 % of control

C=COC(=O)C(Cc1ccccc1)NC(=O)OCc1ccccc1 (stereo not drawn)
T/C [6]: 102 % of control | T/C [7]: 98 % of control | T/C [8]: 96 % of control | T/C [15]: 102 % of control | T/C [16]: 90 % of control

NCC(O)c1ccc(O)c(O)c1 (stereo not drawn)
T/C (dose: 0.39 mg/kg/injection, schedule: Q01DX009 (ip), vehicle: suspension in saline): 109 % of control | T/C (dose: 0.75 mg/kg/injection, schedule: Q01DX009 (ip), vehicle: suspension in saline): 96 % of control | T/C (dose: 1.5 mg/kg/injection, schedule: Q01DX009 (ip), vehicle: suspension in saline): 103 % of control | T/C (dose: 3.0 mg/kg/injection, schedule: Q01DX009 (ip), vehicle: suspension in saline): 100 % of control | T/C (dose: 6.0 mg/kg/injection, schedule: Q01DX009 (ip), vehicle: suspension in saline): 100 % of control and 106 % of control | T/C (dose: 12.0 mg/kg/injection, schedule: Q01DX009 (ip), vehicle: suspension in saline): 124 % of control and 105 % of control | T/C (dose: 24.0 mg/kg/injection, schedule: Q01DX009 (ip), vehicle: suspension in saline): 100 % of control

O=[n+]1c2c(n([O-])c3ccccc31)-c1cccc3cccc-2c13
T/C [9]: 99 % of control | T/C [10]: 91 % of control | T/C [12]: 94 % of control

CSCS(=O)C[C@H](CO)NC(=O)/C=C/c1c(C)[nH]c(=O)[nH]c1=O (stereo partly drawn)
T/C (dose: 0.03 mg/kg/injection, schedule: Q01DX009 (ip), vehicle: saline): 100 % of control and 104 % of control | T/C (dose: 0.06 mg/kg/injection, schedule: Q01DX009 (ip), vehicle: saline): 112 % of control and 102 % of control | T/C (dose: 0.12 mg/kg/injection, schedule: Q01DX009 (ip), vehicle: saline): 98 % of control and 102 % of control | T/C (dose: 0.25 mg/kg/injection, schedule: Q01DX009 (ip), vehicle: saline): 118 % of control and 98 % of control | T/C (dose: 0.5 mg/kg/injection, schedule: Q01DX009 (ip), vehicle: saline): 102 % of control | T/C (dose: 1.0 mg/kg/injection, schedule: Q01DX009 (ip), vehicle: saline): 98 % of control

Cn1c2c(c3ccccc3c1=O)C(=O)c1ccccc1-2
T/C (dose: 3.13 mg/kg/injection, schedule: Q01DX009 (ip), vehicle: saline with Tween-80): 114 % of control | T/C (dose: 6.25 mg/kg/injection, schedule: Q01DX009 (ip), vehicle: saline with Tween-80): 105 % of control | T/C [5]: 98 % of control and 101 % of control | T/C [6]: 104 % of control | T/C [7]: 96 % of control | T/C [8]: 102 % of control | T/C [15]: 94 % of control | T/C [16]: 88 % of control

Reference: PubChem BioAssay AID200 (DTP/NCI, 2004)
